{"source": "patent US20110110916A1", "about": "“METHODS FOR TREATING AND/OR PREVENTING CARDIOMYOPATHIES BY ERK OR JNK INHIBITION” (priority 2008, published 2011)", "assay_type_in_all_cases": "in vivo, mouse", "key": {"[1]": {"test_system": "Lmna^H222P/H222P mice", "details": "for development of LV dilatation: echocardiography (PD98059 also histopathology); for EF / FS / IVSD / LVEDD / LVESD / LVPW: Lmna^H222P/H222P mice at 16 weeks of age, i.p. 5 days a week from 8 to 16 weeks (PD98059, SP600125 3 mg/kg/day), means ± standard deviations", "description": "PD98059 (Calbiochem) and SP600125 (Calbiochem) were dissolved in Dimethyl Sulfoxide (DMSO, Sigma) at a concentration of 0.5 mg/ml and were delivered to a dose of 3 mg/kg/day for 5 days a week. […] The placebo control consisted of DMSO alone. Placebo and inhibitors were administered by intraperitoneal injection using a 27G^5/8 syringe. Treatment was started when mice were 8 weeks of age and continued until 16 weeks of age.\nLmna H222P knock-in mice were generated and genotyped as described (14). […] Lmna^H222P/H222P mice were separated by sex and were given either vehicle alone (DMSO), the MEK inhibitor PD98059 alone, the JNK inhibitor SP600125 alone, both PD98059 and SP600125 together, the MEK inhibitor U0126 alone, or the MEK inhibitor MEK1/2 alone. All the mice were fed on a chow diet and housed in a barrier facility. The Institutional Animal Care and Use Committee at Columbia University Medical Center approved the use of animals in the study protocol.\nCardiac function was assessed by echocardiography with a Visualsonics Vevo 770 ultrasound with a 30-MHz transducer applied to the chest wall. Cardiac ventricular dimensions and ejection fraction were measured in 2D-mode and M-mode three times for the number of animals indicated. A “blinded” echocardiographer, unaware of the genotype or treatment, performed the examinations.\nWe administered PD98059, at a dose of 3 mg/kg/day or 6 mg/kg/day, or placebo (dimethylsulfoxide; DMSO) by intraperitoneal injection 5 days a week to male homozygous Lmna mutant mice (Lmna^H222P/H222P). […] PD98059 mediates its inhibitory properties by binding to MEK, therefore preventing phosphorylation of ERK1/2.\nTreatment was initiated at 8 weeks of age and continued until the mice were 16 weeks of age. At 16 weeks of age, the mice were analyzed by echocardiography and then sacrificed for histological and biochemical studies. Untreated male Lmna^+/+ and Lmna^H222P/H222P mice were similarly analyzed for comparisons."}, "[2]": {"test_system": "Lmna^H222P/H222P mice", "test": "Transthoracic echocardiography at 20 weeks of age, PD98059 or SP600125 from 16 to 20 weeks", "details": "for LVESD compared to DMSO-treated mice: 3 mg/kg/day; for FS and EF: after 4 weeks of treatment; for HR: heart rate; for further deterioration in cardiac function: treated from 16 to 20 weeks of age", "description": "Using the methods described in Example 2, we treated Lmna^H222P/H222P mice with PD98059 alone or SP600125 alone, starting at 16 weeks of age, when ejection fraction has already deteriorated and left ventricular end diastolic diameter is increased, until 20 weeks of age.\n(§1) SP600125, an anthrapyrazolone inhibitor of JNK, and PD98059, a 2′-amino-3′-methoxyflavone MAPK/ERK kinase (MEK) ½ inhibitor, (Calbiochem) were dissolved in dimethyl sulfoxide (DMSO) (Sigma) at a concentration of 1 mg/ml and were delivered to a dose of 3 mg/kg/day for 5 days a week. The placebo control consisted of DMSO alone and was delivered in the same volume. Placebo and inhibitors were administered by intraperitoneal injection using a 27⅝-gauge syringe. Treatments were started when mice were 16 weeks of age and continued until 20 weeks of age or when the mice were 19 weeks and continued until 24 weeks of age.\n(§2) At 20 weeks or 24 weeks of age, mice were anesthetized with 1.5% isoflurane in O2 and placed on a heating pad (37° C.). Cardiac function was assessed by echocardiography with a Visualsonics Vevo 770 ultrasound with a 30 MHz transducer applied to the chest wall. Cardiac ventricular dimensions and fractional shortening (FS) were measured in 2D mode and M-mode three times in a modified short axis view for the number of animals indicated. A “blinded” echocardiographer (J.S.), unaware of the genotype or treatment, performed the examinations.\nWe assigned male Lmna^H222P/H222P mice 16 weeks of age to 3 different treatment arms (placebo DMSO, n=28; MEK1/2 inhibitor PD98059, n=22; JNK inhibitor SP600125, n=29) and examined parameters of cardiac structure and function at 20 weeks of age, after 4 weeks treatment. […] Lmna^H222P/H222P mice also have depressed cardiac contractility, with fractional shortening (FS) decreased by 20%-40% compared to Lmna^+/+ mice (13,15). Myocardial fibrosis occurs in Lmna^H222P/H222P mice at 16 weeks of age (16). At 20 weeks, LVEDD and LVESD increase further in Lmna^H222P/H222P mice and cardiac contractility also progressively deteriorates (16). During the 4-week treatment protocol, 6 mice in the DMSO group, 3 in the PD98059 group and 3 in the SP600125 group died prior to reaching 20 weeks of age for evaluation."}, "[3]": {"test_system": "Lmna^H222P/H222P mice", "test": "Pilot study: echocardiography at 24 weeks of age, treatment from 19 to 24 weeks", "details": "3 mg/kg/day from 19 to 24 weeks, pilot study n=3", "description": "as §1, §2\nIn a pilot study, we assessed treatment of Lmna^H222P/H222P mice with PD98059 and SP600125 at a more advanced stage of disease and for a longer time. […]"}, "[4]": {"test_system": "hearts from Lmna^H222P/H222P mice", "test": "Histopathological analysis of hearts (left ventricle, cardiomyocyte nuclear length)", "details": "for mean lengths of nuclei in cardiomyocytes compared to the DMSO-treated group: 20 weeks of age, treated 16 to 20 weeks", "description": "Mice were sacrificed at 16 weeks of age and freshly removed hearts were fixed in 4% formaldehyde for 48 hours, embedded in paraffin, sectioned at […] and stained with hematoxylin and eosin and Masson's trichrome. Representative stained sections were photographed using a Microphot SA (Nikon) light microscope attached to a Spot RT Slide camera (Diagnostic Instruments). Images were processed using Adobe Photoshop 6.0 (Adobe Systems). Length of cardiomyocytes was measured using Scion Image software (Scion Corporation). Data were reported as means±standard deviations and are compared with respective controls using a two-tailed t test.\nMice were sacrificed at 20 weeks of age, and freshly removed hearts were fixed in 4% formaldehyde for 48 hours, embedded in paraffin, sectioned at 5 μm and stained with hematoxylin, eosin and Gomori's trichrome and Syrius Red. Representative stained sections were photographed using a Microphot SA (Nikon) light microscope attached to a Spot RT Slide camera (Diagnostic Instruments) with a 10× objective. Images were processed using Adobe Photoshop CS (Adobe Systems)."}, "[5]": {"details": "16 weeks of age, treated 8 to 16 weeks"}, "[6]": {"details": "20 weeks of age, 3 mg/kg/day i.p. from 16 to 20 weeks"}, "[7]": {"details": "20 weeks of age, 3 mg/kg/day i.p. from 16 to 20 weeks, means ± SEM"}, "[8]": {"details": "Lmna^H222P/H222P mice at 20 weeks of age, treated from 16 to 20 weeks, means ± SEM"}, "[9]": {"details": "Lmna^H222P/H222P mice at 20 weeks of age, treated from 16 to 20 weeks, means ± standard deviations"}, "[10]": {"details": "Lmna^H222P/H222P mice at 20 weeks of age, treated from 16 to 20 weeks"}}, "note": "Entries after “also recorded” stand apart in the source; their conditions may differ. Read-outs that look alike come from different tables or passages of the source.", "data": [{"molecule": "O=C1c2ccccc2-c2n[nH]c3cccc1c23", "note": "[SP600125, anthra[1,9-cd]pyrazol-6(2H)-one]", "values": [{"measurement": "development of LV dilatation", "setting": "[1]; [5]", "value": "prevented development of LV dilatation"}, {"measurement": "EF", "setting": "[1]", "value": "69.24 ± 9.59", "unit": "%"}, {"measurement": "FS", "setting": "[1]", "value": "38.70 ± 7.38", "unit": "%"}, {"measurement": "IVSD", "setting": "[1]", "value": "0.72 ± 0.07", "unit": "mm"}, {"measurement": "LVEDD", "setting": "[1]", "value": "3.46 ± 0.27", "unit": "mm"}, {"measurement": "LVESD", "setting": "[1]", "value": "2.30 ± 0.45", "unit": "mm"}, {"measurement": "LVPW", "setting": "[1]", "value": "0.73 ± 0.08", "unit": "mm"}, {"measurement": "LVEDD compared to DMSO-treated mice", "setting": "[2]; [6]", "value": "not significantly different"}, {"measurement": "LVESD compared to DMSO-treated mice", "setting": "[2]; [6]", "value": "significantly smaller; also recorded: statistically significant reduction"}, {"measurement": "EF", "setting": "[2]; [7]", "value": "61.88%±1.66%"}, {"measurement": "FS and EF", "setting": "[2]; 20 weeks of age", "value": "increased"}, {"measurement": "EF", "setting": "[2]; [8]", "value": "61.88 ± 1.66", "unit": "%"}, {"measurement": "FS", "setting": "[2]; [8]", "value": "33.11 ± 1.16", "unit": "%"}, {"measurement": "LVEDD", "setting": "[2]; [8]", "value": "3.73 ± 0.08", "unit": "mm"}, {"measurement": "LVESD", "setting": "[2]; [8]", "value": "2.67 ± 0.10", "unit": "mm"}, {"measurement": "EF", "setting": "[2]; [9]", "value": "61.88 ± 8.46", "unit": "%"}, {"measurement": "FS", "setting": "[2]; [9]", "value": "33.11 ± 5.92", "unit": "%"}, {"measurement": "IVSD", "setting": "[2]; [9]", "value": "0.63 ± 0.07", "unit": "mm"}, {"measurement": "LVEDD", "setting": "[2]; [9]", "value": "3.73 ± 0.42", "unit": "mm"}, {"measurement": "LVESD", "setting": "[2]; [9]", "value": "2.67 ± 0.49", "unit": "mm"}, {"measurement": "LVPW", "setting": "[2]; [9]", "value": "0.66 ± 0.09", "unit": "mm"}, {"measurement": "HR", "setting": "[2]; [10]", "value": 363, "unit": "beats per minute"}, {"measurement": "further deterioration in cardiac function", "setting": "[2]", "value": "prevented further deterioration"}, {"measurement": "LV dilatation and FS compared to DMSO-treated mice", "setting": "[3]", "value": "trend toward decreased LV dilatation and increased FS"}, {"measurement": "mean lengths of nuclei in cardiomyocytes compared to the DMSO-treated group", "setting": "[4]", "value": "significantly shorter"}]}, {"molecule": "COc1cccc(-c2cc(=O)c3ccccc3o2)c1N", "note": "[PD98059, 2-(2-amino-3-methoxyphenyl)-4H-1-benzopyran-4-one]", "values": [{"measurement": "cardiac contractility (ejection fraction and LV fractional shortening)", "setting": "[1]; 16 weeks of age, treated 8 to 16 weeks, compared with Lmna^+/+ mice", "value": "normal cardiac contractility"}, {"measurement": "development of LV dilatation", "setting": "[1]; [5]", "value": "prevented development of LV dilatation"}, {"measurement": "EF", "setting": "[1]", "value": "73.52 ± 4.68", "unit": "%"}, {"measurement": "FS", "setting": "[1]", "value": "41.55 ± 4.29", "unit": "%"}, {"measurement": "IVSD", "setting": "[1]", "value": "0.69 ± 0.06", "unit": "mm"}, {"measurement": "LVEDD", "setting": "[1]", "value": "3.12 ± 0.20", "unit": "mm"}, {"measurement": "LVESD", "setting": "[1]", "value": "1.82 ± 0.16", "unit": "mm"}, {"measurement": "LVPW", "setting": "[1]", "value": "0.77 ± 0.10", "unit": "mm"}, {"measurement": "LVEDD compared to DMSO-treated mice", "setting": "[2]; [6]", "value": "not significantly different"}, {"measurement": "increase of EF compared to the DMSO-treated group", "setting": "[2]; [6]", "value": "approximately 22%"}, {"measurement": "LVESD compared to DMSO-treated mice", "setting": "[2]; [6]", "value": "significantly smaller; also recorded: statistically significant reduction"}, {"measurement": "EF", "setting": "[2]; [7]", "value": "65.46%±2.64%"}, {"measurement": "FS and EF", "setting": "[2]; 20 weeks of age", "value": "increased"}, {"measurement": "EF", "setting": "[2]; [8]", "value": "65.46 ± 2.64", "unit": "%"}, {"measurement": "FS", "setting": "[2]; [8]", "value": "35.91 ± 1.88", "unit": "%"}, {"measurement": "LVEDD", "setting": "[2]; [8]", "value": "3.55 ± 0.11", "unit": "mm"}, {"measurement": "LVESD", "setting": "[2]; [8]", "value": "2.41 ± 0.11", "unit": "mm"}, {"measurement": "EF", "setting": "[2]; [9]", "value": "65.46 ± 11.49", "unit": "%"}, {"measurement": "FS", "setting": "[2]; [9]", "value": "35.91 ± 8.21", "unit": "%"}, {"measurement": "IVSD", "setting": "[2]; [9]", "value": "0.66 ± 0.05", "unit": "mm"}, {"measurement": "LVEDD", "setting": "[2]; [9]", "value": "3.55 ± 0.50", "unit": "mm"}, {"measurement": "LVESD", "setting": "[2]; [9]", "value": "2.41 ± 0.50", "unit": "mm"}, {"measurement": "LVPW", "setting": "[2]; [9]", "value": "0.69 ± 0.08", "unit": "mm"}, {"measurement": "HR", "setting": "[2]; [10]", "value": 350, "unit": "beats per minute"}, {"measurement": "further deterioration in cardiac function", "setting": "[2]", "value": "prevented further deterioration"}, {"measurement": "LV dilatation and FS compared to DMSO-treated mice", "setting": "[3]", "value": "decreased LV dilatation and increased FS"}, {"measurement": "abnormal elongation of cardiomyocyte nuclei", "setting": "[4]; 16 week-old mice, treated 8 to 16 weeks", "value": "prevented"}, {"measurement": "mean lengths of nuclei in cardiomyocytes compared to the DMSO-treated group", "setting": "[4]", "value": "significantly shorter"}]}]}
